This is an account of results in patent US11925643B2, “Toll-like receptor 4 (TLR4) inhibitors and use thereof” (MOR RESEARCH APPLICATIONS LTD., priority 2018, dated 2024).

Non-standard residues stand in square brackets, D forms with d. Residues, ends and D or L forms follow the SMILES beside them. 1Nal = N[C@@H](Cc1cccc2ccccc12)C(=O)O

Assay [1] concerns primary cardiomyocytes. Nature of the assay: CK and LDH release by primary cardiomyocytes under LPS treatment (sepsis like). Particulars: LPS system; 10 μM. The class given is cell-based, Rat. The method, then:
(§1) Rat hearts (1-2 days old) were removed under sterile conditions and washed three times in phosphate-buffered saline (PBS) to remove excess blood cells. The hearts were minced and then gently agitated in RBD (a solution of proteolytic enzymes (Biological Institute, Ness-Ziona, Israel) prepared from fig tree extract, and diluted 1:100 in Ca^2+- and Mg^2+-free PBS) for a few cycles of 10 min each. Dulbecco's modified Eagle's medium (Biological Industries, Kibbutz Beit Haemek, Israel) containing 10% horse serum was added to supernatant suspensions containing the dissociated cells. The mixture was centrifuged at 1400 rpm for 4 min. The supernatant phase was discarded, and the cells were re-suspended. The cell suspension was diluted to 1.0×10^6 cells/ml, unless stated otherwise, and 1.5 ml of the suspension was placed in 35-mm plastic culture dishes collagen- or gelatin-coated, or on coated cover glasses. The cultures were incubated in a humidified atmosphere of 5% CO2 and 95% air at 37° C.
(§2) Primary cardiomyocytes which were obtained by method described above, were treated with exemplary decoy peptides described herein. After 30 minutes of incubation, sepsis like (LPS treatment for 6 hours), or myocardial infarction (MI) like (hypoxia for 3 hours) conditions were imposed to measure the release of CK and LDH to the medium and determine the potential cardioprotective effect of the tested decoy peptides. Cytotoxicity and level of cell damage were assessed by spectrophotometric measurement of lactate dehydrogenase (LDH) and creatine kinase (CK) activities (at 30° C.). Results are presented as CK and LDH release in arbitrary units (a.u.)
(§3) Activity of LDH and CK was determined in the cell-culture medium (25 μl) transferred into 96-well plates, using commercial L-LDH/CK kits (such as those manufactured, e.g., by Sigma-Aldrich, BioVision™ or Thermo Fisher Scientific®).
(§4) Primary cardiomyocytes were treated with peptides and peptidomimetics of SEQ ID NOs:1-7 provided at concentrations ranging from 1 μM to 20 μM. Following 30 minutes of incubation, sepsis like (LPS treatment for 6 hours) or MI like (hypoxia for 3 hours) conditions were induced to determine the potential cardioprotective effect of the tested compounds. Creatine kinase (CK) and lactate dehydrogenase (LDH) activity were assayed to determine the level of cellular damage and cell protection effect. The experimental procedure is described in Materials and Methods above. Results are presented as CK and LDH release in arbitrary units (a.u.).

Assay [2] has as its system primary cardiomyocytes. Put plainly: CK and LDH release by primary cardiomyocytes under hypoxia (MI like). The following applies: 10 μM, FIGS. 2A, 2B. The assay is classed as cell-based, Rat. The method, then:
as §1
Using a vacuum pump, the oxygen rich air was evacuated from an incubator containing plates with cell cultures, and a 100% Argon atmosphere was let in, while maintaining a temperature of 37° C. The cell cultures were washed with PBS twice to remove glucose from the medium. Hypoxic treated cells were cultures in PBS without glucose. These cells lasted for 180 minutes.
as §2, §3, §4
(In general: Release of lactate dehydrogenase indicates damage to the cell membrane.)

The subject of assay [3] is TLR2 mRNA. Nature of the assay: TLR2 mRNA level by RT-qPCR in hypoxic cardiomyocytes (negative control). The class given is cell-based. Particulars: hypoxic conditions. The protocol: (§5) Real-time RT-PCR experiments were performed in duplicates on an ABI 7900 instrument (Applied Biosystems™) using Taqman™ Master Mix (Applied Biosystems™). The average threshold cycles (Ct) of the duplicates were used to calculate the relative expression levels of the following genes: TLR4 (Applied Biosystems™ assay primer ID: Mm00569848_m1 Tlr4), TLR2 (assay primer ID: Mm01769726_m1 Tlr2), TNF-α (assay primer ID: Mm00443260_g1 Tnf) and IL-1β (assay primer ID: Mm00434228_m1 II1b) in vitro and in vivo following hypoxia or ischemia, respectively. The reference gene was TBP and the primer used was derived from mouse TATA-box binding protein (Applied Biosystems™ assay primer ID: Mm00446973_m1 Tbp). Amounts of TLR2, TLR4, TNF-α and IL-1β mRNAs in each sample were calculated relative to TBP mRNA, based on the corresponding Cts, as Relative Quantity (RQ) values, and normalized taking as 1 a randomly selected sample of the control group (TBP mRNA). Calculation were performed using the Applied Biosystems Analysis™ software (StepOnePlus V2.2.2). All mRNA scores are presented in arbitrary units.
Next, peptidomimetics of SEQ ID NOs:1 and 2 were tested for their ability to affect the expression of TLR4. The level of TLR4 mRNA was measured by real-time reverse transcriptase polymerase chain reaction (RT-qPCR) method as described in Materials and Methods. […]

Assay [4] has as its system TLR4 mRNA. Put plainly: TLR4 mRNA level by RT-qPCR in hypoxic cardiomyocytes. The class given is cell-based. The following applies: hypoxic conditions. The method, then:
as §5
Next, peptidomimetics of SEQ ID NOs:1 and 2 were tested for their ability to affect the expression of TLR4. The level of TLR4 mRNA was measured by real-time reverse transcriptase polymerase chain reaction (RT-qPCR) method as described in Materials and Methods. The possible effect of both compounds on expression levels of TLR2 mRNA was used as a negative control.
Background: Quantitative PCR measures a nucleic acid by following its amplification.

Assay [5] addresses T1, TLR4 (Homo sapiens, UniProt O00206).
T1 construct: FACS analysis to test the expression of TLR4 protein by macrophages under LPS treatment; endogenous in cells; host or cells: human peripheral-blood monocytes differentiated into macrophages with M-CSF
Put plainly: FACS analysis of TLR4 expressed by macrophages exposed to LPS. The assay is classed as cell-based. Particulars: 10 μM. The method, then: Flow cytometry is an analytical cell-biology technique that utilizes light to count and profile cells in a heterogenous fluid mixture. Flow cytometry analysis was used to evaluate binding of antibodies to TLR4 presenting cells. In this assay, an anti-TLR4 antibody was added to a monocytes suspension and cells which bound the antibody were visualized by a fluorescently labeled secondary antibody that bound to the anti-TLR4 antibody (Ab). Accordingly, samples were first “labeled” with the anti-TLR4 antibody, then incubated with Fluor® 488 conjugated to a secondary Ab for TLR4 (CD284) positive cells visualization.
In order to confirm the specificity of binding, and further in order to correct for non-specific or background staining, isotypes control mouse IgGs were added to cell suspensions at the same concentration as the anti-TLR4 Abs. To deduct the non-specific or background staining from the positive staining due to direct Ab binding to the antigen, the level of background staining was assessed by the use of the same fluorochrome as that used for staining the anti-TLR4 Ab.
Peripheral blood (30 ml) was obtained for the isolation of monocytes. Monocytes were purified by density gradient centrifugation as described above, and/or by adherence to plastic in RPMI 1640 medium supplemented with 10% fetal bovine serum (FBS) and antibiotics. Peripheral blood mononuclear cells (PBMCs) (10^6 cells/ml) were first seeded into 24-well plates (0.5 ml per well), after 2 hours, non-adherent cells were removed by several washes with warm PBS.
Monocytes freshly isolated either by density gradient centrifugation by adherence differentiated into macrophages in complete RPMI 1640 medium supplemented with human recombinant macrophage colony stimulating factor (100 ng/ml) for 6 days. To confirm macrophage cell lineage, direct immunostaining was performed with an antibody directed against CD11b/mac1 (Biolegend® Inc., San Diego, Calif., USA). Eighty percent (80%) of positive staining was observed by flow cytometry analysis. The proportion of TLR4 in this separated cell fraction was examined by FACS analysis using, as isotype control, mouse IgG2a IsoControl (eBioscience™ #53-4724-80), and mouse anti-human CD284 Alexa Fluor® 488 Clone FITA125 secondary Ab (Isotype IgG2a. eBioscience™ #53-9917-41), which recognizes the human TLR4 (also known as CD284) cell surface antigen. Cells were analyzed in a BC Gallios Flow Cytometer (Beckman Coulter, Indianapolis Ind., USA) and were initially gated on the basis of forward and side scatter characteristics. Kaluza Software was used to analyze the results. Results are expressed as mean fluorescence intensity (MFI) and also as normalized to control. […]
For orientation: In flow cytometry, cells or beads pass a laser one at a time.

Assay [6] relates to IκB. Nature of the assay: IκB protein level by Western blot in hypoxic cardiomyocytes. The class given is cell-based. The following applies: normalized to β-actin. The method, then:
Frozen tissue/cell cultures of liver or heart were pulverized under liquid nitrogen and placed in a homogenization buffer ([…] phosphate buffer, […] sucrose, […] EDTA, […] phenylmethylsulfonyl fluoride (PMSF), and 0.1% vol/vol tergitol, pH 7.5). Myocytes from cell cultures were homogenized in lysis buffer.
Homogenates were centrifuged at 12K rpm for 10 minutes at 4° C., the supernatant was isolated, and protein levels were visualized by immunoblotting with antibodies. Briefly, proteins (60 μg/sample) were separated using SDS-PAGE gel (12%-15%) under denaturing conditions and electro-transferred (blotted) onto nitrocellulose (Bio-Rad) for 1 hour at 100 V. Membranes were blocked with 5% nonfat milk in Tris-buffered saline with 0.1% Tween® 20 (TBST) for 1 hour at room temperature. Primary antibodies were used at a 1:200-1:1000 concentration in TBST with 5% nonfat milk overnight at 4° C. Immunodetection of β-actin/GPDH was performed as an internal control. Dye 800/680 secondary antibodies were added at a concentration of 1:15000 for 1 hour at room temperature (LI-COR® Biosciences, NE, USA). Detection was carried out with LI-CORE® Odyssey® imaging system. Quantification of signals was carried out with the Odyssey® program.
The mechanism of action of peptidomimetics of SEQ ID NOs:1, 2 and 12 was studied in vitro in cardiomyocytes, under hypoxic conditions, by determining the expression level of the IκB gene, which is regulated by activation of TLR4, and by measuring the TLR4 mRNA levels. In addition, TLR4 expression level was measured in macrophage (derived from monocytes) treated with LPS.
IκB protein level was determined by Western blot as described in Material and Methods. The amount of IκB was normalized via-a-vis the amount of β-actin serving as the loading control (the β-actin is coded by a housekeeping gene and its level is expected to remain constant under any experimental conditions).

T1 sequence (O00206 24-839): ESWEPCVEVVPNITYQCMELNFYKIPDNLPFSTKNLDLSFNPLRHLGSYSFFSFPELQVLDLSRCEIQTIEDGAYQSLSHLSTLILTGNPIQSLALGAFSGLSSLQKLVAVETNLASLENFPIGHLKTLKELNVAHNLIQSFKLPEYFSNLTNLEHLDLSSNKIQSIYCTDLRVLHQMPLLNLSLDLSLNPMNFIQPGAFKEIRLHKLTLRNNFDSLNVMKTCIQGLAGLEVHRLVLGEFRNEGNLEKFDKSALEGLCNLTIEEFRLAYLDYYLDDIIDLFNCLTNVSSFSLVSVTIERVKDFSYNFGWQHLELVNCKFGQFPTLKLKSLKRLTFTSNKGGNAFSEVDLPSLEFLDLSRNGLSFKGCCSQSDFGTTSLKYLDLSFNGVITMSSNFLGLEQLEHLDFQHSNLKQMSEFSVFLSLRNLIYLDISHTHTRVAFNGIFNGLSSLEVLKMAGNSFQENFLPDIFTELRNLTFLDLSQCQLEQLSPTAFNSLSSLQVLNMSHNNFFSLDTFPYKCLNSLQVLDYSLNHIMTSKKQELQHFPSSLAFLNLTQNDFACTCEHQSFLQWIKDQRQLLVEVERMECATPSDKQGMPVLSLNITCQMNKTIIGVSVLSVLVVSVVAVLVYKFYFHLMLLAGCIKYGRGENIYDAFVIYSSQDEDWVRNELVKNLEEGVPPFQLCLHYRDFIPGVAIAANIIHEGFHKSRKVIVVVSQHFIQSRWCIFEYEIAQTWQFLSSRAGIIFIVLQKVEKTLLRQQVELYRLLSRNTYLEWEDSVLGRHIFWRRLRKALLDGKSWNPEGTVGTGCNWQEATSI

For `CC(=O)N[C@H](C(=O)N[C@@H](Cc1cccc2ccccc12)C(=O)N[C@@H](C)C(=O)N[C@@H](CCC(=O)O)C(N)=O)C(C)C` [SEQ ID NO:19, (4S,7S,10S,13S)-13-carbamoyl-4-isopropyl-10-methyl-7-(naphthalen-1-ylmethyl)-2,5,8,11-tetraoxo-3,6,9,12-tetraazahexadecan-16-oic acid] (Ac-V[1Nal]AE-NH2), in assay [1], the “cellular protection / cytoprotective effect (CK and LDH release)” value is reported as “significant cytoprotective effect”.

For `CC(=O)N[C@@H](Cc1ccccc1)C(=O)NCCC(=O)N[C@@H](CCC(=O)O)C(N)=O` [SEQ ID NO:9, (S)-4-(3-((S)-2-acetamido-3-phenylpropanamido)propanamido)-5-amino-5-oxopentanoic acid], the “cell protective effect (CK and LDH release)” value (from here on “cell protective effect”) in assay [2] was “substantial cell protective effect”.

Turning to `CC(=O)N[C@H](C(=O)N[C@@H](Cc1ccccc1)C(=O)N[C@@H](C)C(=O)N[C@@H](CCC(=O)O)C(N)=O)C(C)C` [SEQ ID NO:2, (4S,7S,10S,13S)-7-benzyl-13-carbamoyl-4-isopropyl-10-methyl-2,5,8,11-tetraoxo-3,6,9,12-tetraazahexadecan-16-oic acid] (Ac-VFAE-NH2), the “TLR2 mRNA expression level” value in assay [3] is “relatively unaffected”. In addition, the “TLR4 mRNA expression level” value in assay [4] is listed as “significantly decreased”. For the same molecule, the TLR4 expression level entry in assay [5] (30 min before LPS (100 ng/ml or 20 μg/ml), 4 hours) is reported as “toward baseline levels”. The “lowering the expression of TLR4 in the presence of LPS, compared with SEQ ID NO: 25” value in assay [5] (low and high LPS) is “more effective”.

With `CC(C)[C@H](NC(=O)CN[C@@H](C)C(C)(C)C)C(=O)N[C@@H](Cc1ccccc1)C(=O)N[C@@H](C)C(N)=O` [SEQ ID NO:17, (S)-N-((S)-1-(((S)-1-amino-1-oxopropan-2-yl)amino)-1-oxo-3-phenylpropan-2-yl)-2-(2-(((S)-3,3-dimethylbutan-2-yl)amino)acetamido)-3-methylbutanamide], in assay [1], the “cellular protection / cytoprotective effect (CK and LDH release)” value is recorded as “significant cytoprotective effect”.

With `CC(=O)N[C@@H](Cc1ccccc1)C(=O)N[C@@H](C)C(=O)N[C@@H](CCC(=O)O)C(N)=O` [SEQ ID NO:8, (S)-4-((S)-2-((S)-2-acetamido-3-phenylpropanamido)propanamido)-5-amino-5-oxopentanoic acid] (Ac-Phe-Ala-Glu-NH2), the “cell protective effect” value in assay [2] is given as “substantial cell protective effect”.

With `CC[C@H](C)[C@H](NC(C)=O)C(=O)N[C@H](C(=O)NC(C(=O)N[C@@H](C)C(N)=O)c1cccc2ccccc12)C(C)C` (stereo partly drawn) [SEQ ID NO:12, (2S,3S)-2-acetamido-N-((2S)-1-((2-(((S)-1-amino-1-oxopropan-2-yl)amino)-1-(naphthalen-1-yl)-2-oxoethyl)amino)-3-methyl-1-oxobutan-2-yl)-3-methylpentanamide], the IκB level result in assay [6] is “high levels”.

Take `CC(=O)NC(C(=O)N[C@@H](C)C(=O)N[C@@H](CCC(=O)O)C(N)=O)c1cccc2ccccc12` (stereo partly drawn) [SEQ ID NO:11, (4S)-4-((2S)-2-(2-acetamido-2-(naphthalen-1-yl)acetamido)propanamido)-5-amino-5-oxopentanoic acid]: in assay [2], the “cell protective effect” value is listed as “substantial cell protective effect”.
